This is an account of results in ChEMBL document CHEMBL1146245, “Antitumor agents. 258. Syntheses and evaluation of dietary antioxidant--taxoid conjugates as novel cytotoxic agents” (2007).

In brackets after ≈: the same amount, converted by molar mass. Activity calls are given as the source filed them. The calls are words filed in the database; no cut-off is given here.

Common to all, as to assay type: functional
Experiment [1] deals with 1A9. Nature of the experiment: Cytotoxicity against human 1A9 cells by sulforhodamine B assay. The note with it: for EC50: read-out: ED50 (the source's name). A general note: The SRB assay estimates cell density from bound dye.
For experiment [2], the system named is KB. Nature of the experiment: Cytotoxicity against human KB cells by sulforhodamine B assay. The note with it: for EC50: read-out: ED50 (the source's name).
The subject of experiment [3] is HCT-8. Nature of the experiment: Cytotoxicity against human HCT8 cells.
Experiment [4] in a line: Cytotoxicity against MDR human KB-VIN cells expressing P-glycoprotein.
The subject of experiment [5] is A549. Nature of the experiment: Cytotoxicity against human A549 cells.
Experiment [6] relates to A-431. Nature of the experiment: Cytotoxicity against human A431 cells. The settings on record: read-out: ED50 (the source's name).

For `CC(=O)O[C@H]1C(=O)[C@@]2(C)[C@H]([C@H](OCc3ccccc3)[C@]3(O)C[C@H](OC(=O)[C@H](OC(=O)CCC(=O)Oc4ccc5c(C)cc(=O)oc5c4)[C@@H](NCc4ccccc4)c4ccccc4)C(C)=C1C3(C)C)[C@]1(OC(C)=O)CO[C@@H]1C[C@@H]2O`, the values for the EC50 in experiment [1] and in experiment [2] were 0.005 µg/mL (≈ 0.00461 µM) and 0.14 µg/mL (≈ 0.129 µM), respectively.

Regarding `CC(=O)O[C@H]1C(=O)[C@]2(C)[C@@H](OC(=O)CN(C)C)C[C@H]3OC[C@@]3(OC(C)=O)[C@H]2[C@H](OCc2ccccc2)[C@]2(O)C[C@H](OC(=O)[C@H](OC(=O)CCC(=O)Oc3c(C)c(C)c4c(c3C)OC(C)(CCC[C@@H](C)CCC[C@@H](C)CCCC(C)C)CC4)[C@@H](NCc3ccccc3)c3ccccc3)C(C)=C1C2(C)C` (stereo partly specified) [listing 1 of 2 here], the outcome in experiment [3], in experiment [1], in experiment [2], in experiment [4] and in experiment [5] was inactive.

For `COc1cccc(/C=C\C(C)=O)c1OC(=O)CCC(=O)O[C@@H](C(=O)O[C@H]1C[C@@]2(O)[C@@H](OCc3ccccc3)[C@@H]3[C@]4(OC(C)=O)CO[C@@H]4C[C@H](OC(=O)CN(C)C)[C@@]3(C)C(=O)[C@H](OC(C)=O)C(=C1C)C2(C)C)[C@@H](NCc1ccccc1)c1ccccc1`, the results for the EC50 in experiment [1] and in experiment [2] were 0.19 µg/mL (≈ 0.16 µM) and 0.34 µg/mL (≈ 0.287 µM), respectively.

In the case of `CC(=O)O[C@H]1C(=O)[C@@]2(C)[C@H]([C@H](OCc3ccccc3)[C@]3(O)C[C@H](OC(=O)[C@H](OC(=O)CCC(=O)Oc4c(C)c(C)c5c(c4C)OC(C)(C)CC5)[C@@H](NCc4ccccc4)c4ccccc4)C(C)=C1C3(C)C)[C@]1(OC(C)=O)CO[C@@H]1C[C@@H]2O`, the EC50 in experiment [1] worked out at 0.2 µg/mL (≈ 0.177 µM); in experiment [2] it was 0.94 µg/mL (≈ 0.833 µM).

Take `CC(=O)O[C@H]1C(=O)[C@@]2(C)[C@H]([C@H](OCc3ccccc3)[C@]3(O)C[C@H](OC(=O)[C@H](OC(=O)/C=C(C)/C=C/C=C(C)/C=C/C4=C(C)CCCC4(C)C)[C@@H](NCc4ccccc4)c4ccccc4)C(C)=C1C3(C)C)[C@]1(OC(C)=O)CO[C@@H]1C[C@@H]2O`: the EC50 in experiment [1] came to 0.49 µg/mL (≈ 0.442 µM); in experiment [2], 0.2 µg/mL (≈ 0.18 µM).

Consider `CC(=O)O[C@H]1C(=O)[C@]2(C)[C@@H](OC(=O)CN(C)C)C[C@H]3OC[C@@]3(OC(C)=O)[C@H]2[C@H](OCc2ccccc2)[C@]2(O)C[C@H](OC(=O)[C@H](OC(=O)/C=C(C)/C=C/C=C(C)/C=C/C3=C(C)CCCC3(C)C)[C@@H](NCc3ccccc3)c3ccccc3)C(C)=C1C2(C)C`, for which the EC50 in experiment [1] was determined as 4.47 µg/mL (≈ 3.75 µM); in experiment [2], 7.65 µg/mL (≈ 6.41 µM).

As to `CC(=O)O[C@H]1C(=O)[C@]2(C)[C@@H](OC(=O)CCC(=O)O)C[C@H]3OC[C@@]3(OC(C)=O)[C@H]2[C@H](OCc2ccccc2)[C@]2(O)C[C@H](OC(=O)[C@H](OC(=O)CCC(=O)Oc3c(C)c(C)c4c(c3C)OC(C)(CCC[C@@H](C)CCC[C@@H](C)CCCC(C)C)CC4)[C@@H](NCc3ccccc3)c3ccccc3)C(C)=C1C2(C)C.CCN(CC)CC` (stereo partly specified), in experiment [6], the EC50 came out at 0.2 µg/mL.

Regarding `COc1cc(/C=C/C(C)=O)ccc1OC(=O)CCC(=O)O[C@@H](C(=O)O[C@H]1C[C@@]2(O)[C@@H](OCc3ccccc3)[C@@H]3[C@]4(OC(C)=O)CO[C@@H]4C[C@H](OC(=O)CN(C)C)[C@@]3(C)C(=O)[C@H](OC(C)=O)C(=C1C)C2(C)C)[C@@H](NCc1ccccc1)c1ccccc1`, the EC50 in experiment [1] worked out at 0.63 µg/mL (≈ 0.531 µM); in experiment [2], 0.7 µg/mL (≈ 0.591 µM).

As for `CC(=O)O[C@H]1C(=O)[C@]2(C)[C@@H](OC(=O)CN(C)C)C[C@H]3OC[C@@]3(OC(C)=O)[C@H]2[C@H](OCc2ccccc2)[C@]2(O)C[C@H](OC(=O)[C@H](OC(=O)CCC(=O)Oc3ccc4c(=O)c(O)c(-c5ccccc5)oc4c3)[C@@H](NCc3ccccc3)c3ccccc3)C(C)=C1C2(C)C`, the results for the EC50 in experiment [1] and in experiment [2] were 0.11 µg/mL (≈ 0.0882 µM) and 0.09 µg/mL (≈ 0.0722 µM), respectively.

In the case of `CC(=O)O[C@H]1C(=O)[C@]2(C)[C@@H](OC(=O)CCC(=O)O)C[C@H]3OC[C@@]3(OC(C)=O)[C@H]2[C@H](OCc2ccccc2)[C@]2(O)C[C@H](OC(=O)[C@H](OC(=O)CCC(=O)Oc3c(C)c(C)c4c(c3C)OC(C)(CCC[C@@H](C)CCC[C@@H](C)CCCC(C)C)CC4)[C@@H](NCc3ccccc3)c3ccccc3)C(C)=C1C2(C)C` (stereo partly specified) [listing 1 of 2 here], the EC50 in experiment [6] was determined as 0.1 µg/mL (≈ 0.0695 µM).

Turning to `COc1cc(/C=C/C(C)=O)ccc1OC(=O)CCC(=O)O[C@@H](C(=O)O[C@H]1C[C@@]2(O)[C@@H](OCc3ccccc3)[C@@H]3[C@]4(OC(C)=O)CO[C@@H]4C[C@H](O)[C@@]3(C)C(=O)[C@H](OC(C)=O)C(=C1C)C2(C)C)[C@@H](NCc1ccccc1)c1ccccc1`, the EC50 in experiment [1] and in experiment [2] was 0.005 µg/mL (≈ 0.00454 µM) each time.

For `CC(=O)O[C@H]1C(=O)[C@]2(C)[C@@H](OC(=O)CN(C)C)C[C@H]3OC[C@@]3(OC(C)=O)[C@H]2[C@H](OCc2ccccc2)[C@]2(O)C[C@H](OC(=O)[C@H](OC(=O)CCC(=O)Oc3c(C)c(C)c4c(c3C)OC(C)(CCC[C@@H](C)CCC[C@@H](C)CCCC(C)C)CC4)[C@@H](NCc3ccccc3)c3ccccc3)C(C)=C1C2(C)C` (stereo partly specified) [listing 2 of 2 here], in experiment [6], the EC50 was found to be 0.2 µg/mL (≈ 0.14 µM).

Regarding `CC(=O)O[C@H]1C(=O)[C@]2(C)[C@@H](OC(=O)CN(C)C)C[C@H]3OC[C@@]3(OC(C)=O)[C@H]2[C@H](OCc2ccccc2)[C@]2(O)C[C@H](OC(=O)[C@H](OC(=O)CCC(=O)Oc3c(C)c(C)c4c(c3C)OC(C)(CCC[C@@H](C)CCC[C@@H](C)CCCC(C)C)CC4)[C@@H](NCc3ccccc3)c3ccccc3)C(C)=C1C2(C)C.CS(=O)(=O)O` (stereo partly specified), the EC50 in experiment [6] is 0.1 µg/mL.

As for `CC(=O)O[C@H]1C(=O)[C@@]2(C)[C@H]([C@H](OCc3ccccc3)[C@]3(O)C[C@H](OC(=O)[C@H](OC(=O)CCC(=O)Oc4ccc5c(=O)c(O)c(-c6ccccc6)oc5c4)[C@@H](NCc4ccccc4)c4ccccc4)C(C)=C1C3(C)C)[C@]1(OC(C)=O)CO[C@@H]1C[C@@H]2O`, the EC50 in experiment [1] came to 0.13 µg/mL (≈ 0.112 µM); in experiment [2], 0.26 µg/mL (≈ 0.224 µM).

Regarding `CC(=O)O[C@H]1C(=O)[C@]2(C)[C@@H](OC(=O)CCC(=O)O)C[C@H]3OC[C@@]3(OC(C)=O)[C@H]2[C@H](OCc2ccccc2)[C@]2(O)C[C@H](OC(=O)[C@H](OC(=O)CCC(=O)Oc3c(C)c(C)c4c(c3C)OC(C)(CCC[C@@H](C)CCC[C@@H](C)CCCC(C)C)CC4)[C@@H](NCc3ccccc3)c3ccccc3)C(C)=C1C2(C)C` (stereo partly specified) [listing 2 of 2 here], the result in experiment [3], in experiment [1], in experiment [2], in experiment [4] and in experiment [5] was inactive.

As for `CC(=O)O[C@H]1C(=O)[C@@]2(C)[C@H]([C@H](OCc3ccccc3)[C@]3(O)C[C@H](OC(=O)[C@H](OC(=O)CCC(=O)Oc4cc(O)c5c(=O)cc(-c6ccccc6)oc5c4)[C@@H](NCc4ccccc4)c4ccccc4)C(C)=C1C3(C)C)[C@]1(OC(C)=O)CO[C@@H]1C[C@@H]2O`, the results for the EC50 in experiment [1] and in experiment [2] were 0.2 µg/mL (≈ 0.172 µM) and 0.47 µg/mL (≈ 0.404 µM), respectively.

For the molecule `CC(=O)O[C@H]1C(=O)[C@]2(C)[C@@H](OC(=O)CN(C)C)C[C@H]3OC[C@@]3(OC(C)=O)[C@H]2[C@H](OCc2ccccc2)[C@]2(O)C[C@H](OC(=O)[C@H](OC(=O)CCC(=O)Oc3c(C)c(C)c4c(c3C)OC(C)(C)CC4)[C@@H](NCc3ccccc3)c3ccccc3)C(C)=C1C2(C)C`, the EC50 was 1.01 µg/mL (≈ 0.832 µM) in experiment [1] and 9.79 µg/mL (≈ 8.07 µM) in experiment [2].
